PubChem BioAssay AID1361 (SRMLSC, 2008)
Activity calls are given as the source filed them. How the calls were made is not given here.

Test: mitochondrial fusion inhibitors, confirmation, cell-based, chemical genetic, wild-type and mutant (AID 1361)
Conditions: Cell-based mitochondrial fusion phenotype, imaging
[1] = mutant cells, measured here: mutant cell line IC50

Compound | IC50 (WT cells) | IC50 [1] [µM]
Cc1cc(C)n(CCc2nc(-c3ccc(C(C)(C)C)cc3)cs2)n1 | 22.1 µM | > 25
Cc1ccc2nc(N/N=C/c3ccccc3F)nc(-c3ccccc3)c2c1 | 7.54 µM | 16.6
Cc1cc(Cl)ccc1OCC(=O)Nc1nc(-c2cccs2)cs1 | 13.4 µM (inactive) | 9.8
Cc1ccc(/C(=N\O)c2oc3c(C)c4oc(=O)cc(C)c4cc3c2C)cc1 | 7.3 µM | > 25
O=C(CC(Nc1ccc(F)cc1)c1ccccc1)c1ccccc1 (stereo unspecified) | 16.5 µM | > 25
CCCCOC(=O)Nc1cccc(C(=O)OCC)c1 | > 25 µM (inactive) | > 25
CCOC(=O)c1c(C)n(C)c2cc(Br)c(C(=O)OC)cc12 | > 25 µM (inactive) | > 25
CCCCCC(=O)Nc1cc(N(C)C)nc2ccccc12 | > 25 µM (inactive) | > 25
S=C(NCCNCc1ccccc1)NC1CCCCC1 | 13.6 µM | > 25
CCN1CCN(c2ccc(NC(=O)c3ccc4c(c3)OCO4)cc2)CC1 | > 25 µM (inactive) | > 25
Cc1ccc(NC(=S)N(Cc2ccc(Br)cc2)Cc2ccc(C(=O)O)cc2)cc1C | > 25 µM (inactive) | > 25
COc1ccc(-c2[nH]c(-c3cc(OC)c4c(c3)OCO4)nc2-c2ccccc2)cc1 | 12.6 µM | > 25
CCC(C)c1ccc(NC(=S)Nc2ccc(OC)cc2C)cc1 (stereo unspecified) | 18.5 µM | > 25
CCc1cc(C(=O)Cc2ccc(F)cc2)c(O)cc1O | > 25 µM (inactive) | > 25
Cc1cccc(N2CCN(C(=O)c3ccc(Cl)c(S(=O)(=O)NCc4ccco4)c3)CC2)c1C | > 25 µM (inactive) | > 25
Cc1ccc(-n2cccc2C(=S)N=P(N(C)C)(N(C)C)N(C)C)cc1 | 9.32 µM | > 25
CCc1cccc(C)c1NC(=S)NCCc1c(C)[nH]c2ccc(C)cc12 | > 25 µM (inactive) | > 25
O=C(C1=C[C@@H](c2csc3ccccc23)C[C@@H](OCc2ccc(CO)cc2)O1)N1CCN(Cc2ccccc2)CC1 | 5.83 µM | > 25
O=C(NC(=S)Nc1ccc(S(=O)(=O)NC2CCCCC2)cc1)c1cccs1 | 17.6 µM | > 25
CCOC(=O)c1cnc(SC)nc1Sc1cc(Cl)ccc1Cl | 11.2 µM | 23.9
Cc1cccn2c(=O)c(C=NCc3ccco3)c(Nc3ccc(SC(F)F)cc3)nc12 | > 25 µM (inactive) | > 25

Compound | IC50 (WT cells) | IC50 [1] [µM]
c1csc(C(c2nnnn2C2CCCCC2)N2CCCC3(CCCCC3)C2)c1 (stereo unspecified) | 4.15 µM | > 25
CC(C)CC(=O)NC(=S)N(Cc1ccccc1)Cc1ccccc1 | 19.2 µM | > 25
Cc1csc(NC(=O)c2c(O)c3c(n(CC(C)C)c2=O)CCCC3)n1 | 14.7 µM | > 25
O=C(COC(=O)c1ccc([N+](=O)[O-])s1)Nc1ncc(C(F)(F)F)cc1Cl | 18.3 µM | > 25
CCOc1ccc(NS(=O)(=O)c2cnc(Cl)c(Cl)c2)cc1 | 20.5 µM | > 25
COc1ccccc1N=Nc1nc(-c2ccccc2)c(-c2ccccc2)[nH]1 | 7.2 µM | 17.4
Cc1ccc(NC(=O)c2cc(-c3ccccc3)nn2-c2ccccc2)c(Br)c1 | 4.51 µM | > 25
CCOC(=O)Cc1c(Sc2ccccc2)c2cc(C)ccc2n1C | 12.3 µM | > 25
COc1ccc(C2=NN(C(=O)c3cccs3)C(c3ccccc3O)C2)cc1 (stereo unspecified) | 13.8 µM | 24.9
Cc1[nH]c2ccc(F)cc2c1CCN(Cc1ccco1)C(=S)NC(C)(C)C | 12.5 µM | > 25
COc1cc(NC(=S)NCCC(c2ccccc2)c2ccccc2)cc(OC)c1 | 4.78 µM | > 25
CC1CN(c2oc(Cc3cccc4ccccc34)nc2C#N)CC(C)O1 (stereo unspecified) | > 25 µM (inactive) | > 25
CCN(c1ccccc1)S(=O)(=O)c1cnc[nH]1 | > 25 µM (inactive) | > 25
COc1nc(SC)nc(Cl)c1Cc1ccc(OC(C)C)cc1 | 24.1 µM | > 25
COc1ccccc1N1CCN(CC(=O)Nc2ccc(Cl)c(C(F)(F)F)c2)CC1 | 20.2 µM | > 25
O=c1cc(-c2ccc(C3CCCCC3)cc2)[nH][nH]1 | > 25 µM (inactive) | > 25
Cc1nc(-c2cccc(NS(=O)(=O)c3cccc4ccccc34)c2)cs1 | 15.9 µM | > 25
CN(C)c1ccc(C(CNS(=O)(=O)c2ccc(F)c(F)c2)c2c[nH]c3ccccc23)cc1 (stereo unspecified) | 13.4 µM | > 25
O=C(NCc1ccccc1Cl)c1cnccn1 | > 25 µM (inactive) | > 25
CCCCCOc1ccc(CSCCNC(=S)Nc2ccccc2)cc1 | 5.86 µM | > 25
COc1ccc(Br)cc1CN(C)CC(=O)Nc1cc(Cl)cc(Cl)c1 | 9.17 µM | 22.1

Compound | IC50 (WT cells) | IC50 [1] [µM]
Cc1cccc(NC(=S)N/N=C/c2ccc3c(c2)OCO3)c1 | > 25 µM (inactive) | > 25
Cc1ccc(C(=O)NC(=S)/C=C2\N(C)c3ccccc3C2(C)C)cc1 | 12 µM | > 25
O=C(NC(=S)Nc1ccccc1N1CCCCC1)c1ccco1 | > 25 µM (inactive) | 23
COc1ccccc1NC(=O)c1cccc(NC(=O)c2ccco2)c1 | > 25 µM (inactive) | > 25
O=C(CSc1ncn[nH]1)NCc1ccccc1 | > 25 µM (inactive) | > 25
Cc1cc(C)cc(NC(=S)NCCSc2ccc(Cl)cc2)c1 | 4.68 µM | 6.34
C[C@@H](C[C@@H](O)[C@H](O)C(C)(C)O)[C@@H]1CC[C@]2(C)C3=CC[C@H]4C(C)(C)C(=O)CC[C@]4(C)[C@H]3CC[C@@]12C | > 25 µM (inactive) | > 25
CCCn1c(CN(Cc2ccccc2)Cc2ccccc2)nc2c1c(=O)n(C)c(=O)n2C | 20.6 µM | > 25
Cc1ccc(-n2cc(CNCCc3cscn3)c(-c3ccc(F)cc3)n2)cc1 | > 25 µM (inactive) | > 25
c1ccc2c(-c3c[nH]c4ccccc34)c3ccccc3nc2c1 | 15.3 µM | > 25
CSc1ccc(Cl)c(C(=O)NCCOc2cc(C)ccc2C(C)C)c1 | 12.9 µM | > 25
CC(=O)c1ccc(-n2nnnc2SCC(=O)Nc2cccc(NC(=O)c3ccco3)c2)cc1 | > 25 µM (inactive) | > 25
CC(C)(C)[C@@H]1C=C(C(=O)N2CCN(Cc3ccccc3)CC2)O[C@H](OCc2ccc(CO)cc2)C1 | 23.8 µM | > 25
Cc1c(C)c2cc(Cl)c(O)c(CN3CCCC(C)C3)c2oc1=O (stereo unspecified) | > 25 µM (inactive) | > 25
Cc1cccc(-c2nnc(SCc3ccccc3)o2)c1 | > 25 µM (inactive) | > 25
COC(=O)c1ccccc1NC(=O)CNc1cc(Cl)ccc1N1CCOCC1 | 24.7 µM | > 25
CC1CCCCN1C(=O)Cn1cc(/C=C2/C(=O)Nc3ccccc32)c2ccccc21 (stereo unspecified) | 24.4 µM | > 25
COc1ccccc1NC1=C(Cl)C(=O)N(C2CCCCC2)C1=O | 23.8 µM | > 25
COC(=O)c1c(N)n(Cc2ccc(OC)cc2)c2nc3ccccc3nc12 | > 25 µM (inactive) | > 25
Cc1oc(-c2ccccc2)[n+]([O-])c1C | > 25 µM (inactive) | > 25
O=C(CN1CCN(c2ccccn2)CC1)N1c2ccccc2Sc2ccc(C(F)(F)F)cc21 | 16 µM | > 25

Compound | IC50 (WT cells) | IC50 [1] [µM]
CC(Oc1ccc2oc3ccccc3c2c1)C(=O)NC12CC3CC(CC(C3)C1)C2 (stereo unspecified) | 9.61 µM | 15.7
Oc1ccccc1CN(Cc1ccco1)CC(O)COCc1ccc(Cl)cc1 (stereo unspecified) | 19.1 µM | > 25
CCN(Cc1cc2ccc(C)cc2[nH]c1=O)C(=O)c1ccncc1 | > 25 µM (inactive) | > 25
CC(NC(=S)NCCCN1CCOCC1)C1CC2CCC1C2 (stereo unspecified) | > 25 µM (inactive) | > 25
CC(C)/C(=N/Nc1ccccc1[N+](=O)[O-])c1ccccc1 | > 25 µM (inactive) | > 25
CN1CCN(c2nc(-c3cccnc3)nc3ccccc23)CC1 | > 25 µM (inactive) | > 25
CCOc1ccc(C(=O)C(CCC(CN(C)C)C(=O)c2ccc(OCC)cc2)CN(C)C)cc1 (stereo unspecified) | 20.4 µM | > 25
Cc1cc(CC(C)C)n(-c2nc3ccccc3c(=O)n2OCc2ccccc2)n1 | > 25 µM (inactive) | > 25
CN(C)c1ccc(S(=O)(=O)c2ccc(Cl)cc2)cc1 | > 25 µM (inactive) | > 25
CC(C)=CCc1c(O)c(CC=C(C)C)c2c(c1O)C(=O)CC(c1ccc(O)cc1)O2 (stereo unspecified) | 10.7 µM | > 25
COCCn1c(SCc2nnc(-c3ccccc3)o2)nc2sc3c(c2c1=O)CCC3 | 8.38 µM | 17.6
CC1=CC(C)(C)N(C(=O)c2ccc(F)cc2)c2cc3c(cc21)OCO3 | > 25 µM (inactive) | > 12.5
CCOC(=O)C1=NN(c2ccccc2)C2=NC(C)=C(C(=O)OC)C(c3ccc(C)cc3)N12 (stereo unspecified) | 8.75 µM | > 25
CCCCNC(=O)C1CCN(S(=O)(=O)c2cnc[nH]2)CC1 | > 25 µM (inactive) | > 25
CCOCCCNC(=S)N1CCCN(c2nc3c(C)c(C)ccc3cc2C#N)CC1 | 11.8 µM | > 25
Fc1ccc(N2N=C(c3cccs3)CC2c2ccco2)c(F)c1 (stereo unspecified) | 15.8 µM | 22.3
Cc1nn(-c2ccccc2)c(C)c1C(=O)OCC(=O)N1CCN(S(=O)(=O)c2ccccc2)CC1 | > 25 µM (inactive) | > 25
O=C(Nc1ccc2c(c1)nc1n2CCN(Cc2ccccc2)C1)c1cccs1 | > 25 µM (inactive) | > 25
O=C(c1cc(Cl)cc(Cl)c1)N1CCC(=O)N(C(COCc2ccccc2)Cc2ccccc2)CC1 (stereo unspecified) | > 25 µM (inactive) | > 25
C=CCn1c(SCC(=O)Nc2cccc(C(=O)OC)c2)nnc1C(C)NC(=O)c1cccs1 (stereo unspecified) | > 25 µM (inactive) | > 25
